The source of these data is patent EP4653437A2 (Innovo Therapeutics Inc., priority 2023, dated 2024).

Molecules are shown by their SMILES. Where two headings read alike, the source gives them in different places.

In one experiment the target is T1, human 15-PGDH (Homo sapiens, UniProt P15428).
T1 construct: purchased R&D System 5660-DH
T1 sequence (P15428 1-266): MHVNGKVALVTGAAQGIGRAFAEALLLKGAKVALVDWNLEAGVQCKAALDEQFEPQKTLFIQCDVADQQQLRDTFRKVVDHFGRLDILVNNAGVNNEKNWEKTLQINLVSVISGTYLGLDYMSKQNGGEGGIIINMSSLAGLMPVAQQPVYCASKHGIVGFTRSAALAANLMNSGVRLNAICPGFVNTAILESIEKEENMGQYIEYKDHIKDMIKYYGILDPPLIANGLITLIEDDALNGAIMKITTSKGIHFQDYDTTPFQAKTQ
The experiment is described as follows: Evaluation of 15-PGDH inhibitory activity (fluorescence enzyme assay, NAD+/PGE2). The format is biochemical. Conditions: human 15-PGDH enzyme, fluorescence Vmax. On the procedure:
15-PGDH inhibition activity of Example compounds was measured as follows. 6.7 ng of human 15-PGDH (R&D System# 5660-DH) enzyme (10 µL) was added to a black 96 well plate, 60 µL of buffer (50 mM Tris-HCl, pH 7.5, 0.01% Tween 20) was added, and 10 µL of 200 µM β-Nicotinamide adenine dinucleotide sodium salt (Sigma, Cat# N0632-5G) was added. 10 µL of (10x) compound solution in DMSO was added and reacted for 10 minutes at room temperature.

Another experiment relates to A549 cells. The experiment is described as follows: Measurement of PGE2-increasing activity in A549 cells (IL-1β stimulated, PGE2 quantified in supernatant). Conditions: Homo sapiens, read-out: Increased PGE2 production in A549 cells. Type of experiment: cell-based. Summed up: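 A549 cells grown 24 h in F12K with 10% FBS, then switched to serum-free medium with or without IL-1β and compound (0.1% DMSO final). After 24 h at 37 °C, 5% CO2, supernatant PGE2 quantified by immunoassay.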

[1] abbreviates: 24 h, concentration of 1 µM of each compound, IL-1β treated A549 cells.

`CN1CCC(NC(=O)c2ccc(-c3cccc4c(C(=O)N5CCCCC5)cnn34)cc2)CC1` [Example 65, N-(1-methylpiperidin-4-yl)-4-(3-(piperidine-1-carbonyl)pyrazolo[1,5-a]pyridin-7-yl)benzamide]: on human 15-PGDH, the IC50 is ≤ 100 nM. For the same molecule, the fold induction at 1 µM in the experiment with A549 cells (setting [1]) is < 1.5.

With `CN1Cc2ccc(-c3cccc4c(C(=O)N5CCCCC5)cnn34)cc2C1=O` [Example 141, 2-methyl-6-(3-(piperidine-1-carbonyl)pyrazolo[1,5-a]pyridin-7-yl)isoindolin-1-one], the IC50 at human 15-PGDH is ≤ 100 nM. Further, in the experiment with A549 cells (setting [1]), the fold induction at 1 µM was > 1.5.

Regarding `O=C(c1cnn2c(-c3cc(-c4ncon4)cc([N+](=O)[O-])c3)cccc12)N1CCCCC1` [Example 342, (7-(3-nitro-5-(1,2,4-oxadiazol-3-yl)phenyl)pyrazolo[1,5-a]pyridin-3-yl)(piperidin-1-yl)methanone], the IC50 on human 15-PGDH was ≤ 100 nM. In addition, the fold induction at 1 µM with A549 cells (setting [1]) was > 1.5.

Turning to `Cc1nnc(-c2ccc(-c3cccc4c(C(=O)N5CCCCC5)cnn34)cc2)o1` [Example 348, [7-[4-(5-methyl-1,3,4-oxadiazol-2-yl)phenyl]pyrazolo[1,5-a]pyridin-3-yl]-(1-piperidyl)methanone], at human 15-PGDH, the IC50 is ≤ 100 nM. In addition, in the experiment on A549 cells (setting [1]), the fold induction at 1 µM was > 1.5.

Take `O=C(c1cnn2c(-c3ccc(N4CCOC4=O)nc3)cccc12)N1CCCC(C(F)(F)F)C1` (stereo not shown) [Example 339, 3-(5-(3-(3-(trifluoromethyl)piperidine-1-carbonyl)pyrazolo[1,5-a]pyridin-7-yl)pyridin-2-yl)oxazolidin-2-one]: the IC50 on human 15-PGDH was ≤ 100 nM. In addition, in the experiment on A549 cells (setting [1]), the fold induction at 1 µM was > 1.5.

As to `O=C(c1cnn2c(-c3ccc(-c4noc(=O)[nH]4)nc3)cccc12)N1CCCCC1` [Example 117, 3-(5-(3-(piperidine-1-carbonyl)pyrazolo[1,5-a]pyridin-7-yl)pyridin-2-yl)-1,2,4-oxadiazol-5(4H)-one], the IC50 against human 15-PGDH was ≤ 100 nM. The fold induction at 1 µM with A549 cells (setting [1]) was > 1.5.

As to `O=C(c1ccc(-c2cccc3c(C(=O)N4CCCCC4)cnn23)cn1)N1CC(F)C1` [Example 213, (3-fluoroazetidin-1-yl)-[5-[3-(piperidine-1-carbonyl)pyrazolo[1,5-a]pyridin-7-yl]-2-pyridyl]methanone], the IC50 on human 15-PGDH is ≤ 100 nM. Besides, the fold induction at 1 µM with A549 cells (setting [1]) is > 1.5.

In the case of `O=C1NCCc2cc(-c3cccc4c(C(=O)N5CCCCC5)cnn34)ccc21` [Example 136, 6-(3-(piperidine-1-carbonyl)pyrazolo[1,5-a]pyridin-7-yl)-3,4-dihydroisoquinolin-1(2H)-one], on human 15-PGDH, the IC50 was ≤ 100 nM. The fold induction at 1 µM in the experiment with A549 cells (setting [1]) was > 1.5.

Turning to `O=C(c1ncc(-c2cccc3c(C(=O)N4CCCCC4)cnn23)cc1Cl)N1CCC1` [Example 286, [7-[6-(azetidine-1-carbonyl)-5-chloro-3-pyridyl]pyrazolo[1,5-a]pyridin-3-yl]-(1-piperidyl)methanone], the IC50 at human 15-PGDH was ≤ 100 nM. Also, the fold induction at 1 µM in the experiment with A549 cells (setting [1]) was > 1.5.

For the molecule `N#CCCNC(=O)c1ccc(-c2cccc3c(C(=O)N4CCCCC4)cnn23)cc1` [Example 69, N-(2-cyanoethyl)-4-(3-(piperidine-1-carbonyl)pyrazolo[1,5-a]pyridin-7-yl)benzamide], the IC50 against human 15-PGDH was ≤ 100 nM. In the experiment with A549 cells (setting [1]), the fold induction at 1 µM was > 1.5.

In the case of `CN(C)CCNC(=O)c1ccc(-c2cccc3c(C(=O)N4CCCCC4)cnn23)cc1` [Example 63, N-(2-(dimethylamino)ethyl)-4-(3-(piperidine-1-carbonyl)pyrazolo[1,5-a]pyridin-7-yl)benzamide], at human 15-PGDH, the IC50 was ≤ 100 nM. Further, the fold induction at 1 µM in the experiment on A549 cells (setting [1]) was > 1.5.

In the case of `O=C(c1cnn2c(-c3ccc(N4CCC4)nc3)cccc12)N1CCCCC1` [Example 206, (7-(6-(azetidin-1-yl)pyridin-3-yl)pyrazolo[1,5-a]pyridin-3-yl)(piperidin-1-yl)methanone], the IC50 on human 15-PGDH was ≤ 100 nM. Besides, the fold induction at 1 µM in the experiment with A549 cells (setting [1]) is > 1.5.

With `O=C(NCc1ccon1)c1ccc(-c2cccc3c(C(=O)N4CCCCC4)cnn23)cc1` [Example 73, N-(isoxazol-3-ylmethyl)-4-(3-(piperidine-1-carbonyl)pyrazolo[1,5-a]pyridin-7-yl)benzamide], the IC50 on human 15-PGDH was ≤ 100 nM. In the experiment with A549 cells (setting [1]), the fold induction at 1 µM was > 1.5.

In the case of `O=C(c1cnn2c(-c3ccccc3)cccc12)N1C2CCC1CC2` [Example 229, (7-azabicyclo[2.2.1]heptan-7-yl)(7-phenylpyrazolo[1,5-a]pyridin-3-yl)methanone], the IC50 against human 15-PGDH was ≤ 100 nM. Also, in the experiment on A549 cells (A549, 24 h), the fold induction at 1 µM was > 1.5.

In the case of `O=C(c1cnn2c(-c3ccc(N4CC(O)C4)nc3)cccc12)N1CCCCC1` [Example 210, (7-(6-(3-hydroxyazetidin-1-yl)pyridin-3-yl)pyrazolo[1,5-a]pyridin-3-yl)(piperidin-1-yl)methanone], the IC50 at human 15-PGDH was ≤ 100 nM. Besides, the fold induction at 1 µM in the experiment with A549 cells (setting [1]) was > 1.5.

Take `O=C(Nc1cccnc1)c1cccc(-c2cccc3c(C(=O)N4CCCCC4)cnn23)c1` [Example 37, 3-(3-(piperidine-1-carbonyl)pyrazolo[1,5-a]pyridin-7-yl)-N-(pyridin-3-yl)benzamide]: the concentration for half-maximal inhibition (IC50) on human 15-PGDH was ≤ 100 nM. The fold induction at 1 µM with A549 cells (setting [1]) was > 1.5.

Take `O=C(c1cnn2c(-c3ccc(-c4nnco4)cc3)cccc12)N1CCCCC1` [Example 350, [7-[4-(1,3,4-oxadiazol-2-yl)phenyl]pyrazolo[1,5-a]pyridin-3-yl]-(1-piperidyl)methanone]: the IC50 against human 15-PGDH was ≤ 100 nM. The fold induction at 1 µM with A549 cells (setting [1]) is > 1.5.

In the case of `O=C(Cc1cccnc1)Nc1ncc(-c2cccc3c(C(=O)N4CCCCC4)cnn23)cc1Cl` [Example 311, N-(3-chloro-5-(3-(piperidine-1-carbonyl)pyrazolo[1,5-a]pyridin-7-yl)pyridin-2-yl)-2-(pyridin-3-yl)acetamide], the IC50 at human 15-PGDH is ≤ 100 nM. In addition, in the experiment on A549 cells (setting [1]), the fold induction at 1 µM is > 1.5.

Regarding `O=C(c1cnn2c(-c3ccc(-c4cnc(O)nc4)cc3)cccc12)N1CCCCC1` [Example 306, [7-[4-(2-hydroxypyrimidin-5-yl)phenyl]pyrazolo[1,5-a]pyridin-3-yl]-(1-piperidyl)methanone], the IC50 at human 15-PGDH was ≤ 100 nM. The fold induction at 1 µM in the experiment on A549 cells (setting [1]) was > 1.5.

As for `O=C(c1cnn2c(-c3ccc(N4CC(CO)C4)nc3)cccc12)N1CCCCC1` [Example 221, (7-(6-(3-(hydroxymethyl)azetidin-1-yl)pyridin-3-yl)pyrazolo[1,5-a]pyridin-3-yl)(piperidin-1-yl)methanone], the IC50 against human 15-PGDH was ≤ 100 nM. Further, the fold induction at 1 µM with A549 cells (setting [1]) was > 1.5.

Take `O=C(c1cnn2c(-c3ccc(F)nc3)cccc12)N1CCCCC1` [Example 19, (7-(6-fluoropyridin-3-yl)pyrazolo[1,5-a]pyridin-3-yl)(piperidin-1-yl)methanone]: the IC50 against human 15-PGDH was ≤ 100 nM. Besides, the fold induction at 1 µM in the experiment on A549 cells (setting [1]) is > 1.5.

For `O=C1NCc2ccc(-c3cccc4c(C(=O)N5CCCC(C(F)(F)F)C5)cnn34)cc21` (stereo not shown) [Example 398, 6-(3-(3-(trifluoromethyl)piperidine-1-carbonyl)pyrazolo[1,5-a]pyridin-7-yl)isoindolin-1-one], the IC50 against human 15-PGDH is ≤ 100 nM. The fold induction at 1 µM in the experiment with A549 cells (setting [1]) is > 1.5.

For `COc1cccc(Sc2cccc3c(C(=O)N4CCCCC4)cnn23)c1` [Example 194, (7-((3-methoxyphenyl)thio)pyrazolo[1,5-a]pyridin-3-yl)(piperidin-1-yl)methanone], the IC50 at human 15-PGDH is ≤ 100 nM. In addition, in the experiment with A549 cells (setting [1]), the fold induction at 1 µM was < 1.5.
